Experimental data: patent US8304539B2, “Fused heteroaryl modulators of glucocorticoid receptor, AP-1, and/or NF-κB activity and use thereof” (Bristol-Myers Squibb Company, priority 2008, dated 2012)

How the values were obtained:
[1] = target: T1, human full-length glucocorticoid receptor (Homo sapiens, UniProt P04150); assay: GR binding Assay II (fluorescence polarization competitor assay); conditions: given where AP-1 EC50 is greater than 1 uM and/or maximal inhibition is less than 20%; read-out: GR (Ki, nM) (measured in GR binding Assay II)
T1 construct: recombinantly expressed human full-length glucocorticoid receptor; purchased PanVera Co., Madison, Wis; P2816
T1 sequence (P04150 1-777): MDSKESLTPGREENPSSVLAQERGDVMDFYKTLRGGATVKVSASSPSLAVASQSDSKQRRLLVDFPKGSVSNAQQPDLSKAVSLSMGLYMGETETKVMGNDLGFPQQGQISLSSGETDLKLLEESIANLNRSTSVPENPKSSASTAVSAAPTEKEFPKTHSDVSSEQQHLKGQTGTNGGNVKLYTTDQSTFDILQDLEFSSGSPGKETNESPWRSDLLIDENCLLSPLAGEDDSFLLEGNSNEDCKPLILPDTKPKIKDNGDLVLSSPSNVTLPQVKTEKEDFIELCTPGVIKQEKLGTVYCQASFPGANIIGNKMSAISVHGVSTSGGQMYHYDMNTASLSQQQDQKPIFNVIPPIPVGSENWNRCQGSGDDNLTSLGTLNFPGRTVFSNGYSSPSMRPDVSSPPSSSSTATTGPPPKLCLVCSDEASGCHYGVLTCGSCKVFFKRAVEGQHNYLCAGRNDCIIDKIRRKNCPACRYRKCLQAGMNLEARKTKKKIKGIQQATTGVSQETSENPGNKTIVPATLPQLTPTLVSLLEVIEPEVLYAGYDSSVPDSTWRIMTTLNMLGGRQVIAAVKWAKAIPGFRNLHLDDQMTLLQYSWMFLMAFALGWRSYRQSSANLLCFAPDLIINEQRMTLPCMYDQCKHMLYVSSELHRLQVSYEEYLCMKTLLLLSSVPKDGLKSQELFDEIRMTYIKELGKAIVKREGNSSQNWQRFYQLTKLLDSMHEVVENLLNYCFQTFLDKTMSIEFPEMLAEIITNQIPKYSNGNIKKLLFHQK
Protocol: Glucocorticoid Receptor Binding Assay (II)
In order to measure the binding of compounds on the glucocorticoid receptor a commercially available kit was used (Glucocorticoid receptor competitor assay kit, PanVera Co., Madison, Wis., P2816). Briefly, a cell lysate containing recombinantly expressed human full-length glucocorticoid receptor was mixed with a fluorescently labeled glucocorticoid (1 nM Fluormone GS1) in the presence or absence of test compound. After one hour at room temperature, the fluorescence polarization (FP) of the samples were measured. The FP of a mixture of receptor, fluorescent probe (i.e. Fluormone GS1) and 1 mM dexamethasone represented background fluorescence or 100% inhibition, whereas, the FP of the mixture without dexamethasone was taken to be 100% binding. The percentage inhibition of test molecules were then compared to the sample with 1 mM dexamethasone and expressed as % relative binding activity with dexamethasone being 100% and no inhibition is 0%. Test molecules were analyzed in the concentration range from 2.4 nM to 40 microMolar.

AP-1 = assay: Cellular transrepression assay (AP-1 luciferase reporter in A549 cells, PMA activated); format: cell-based; conditions: 7 h, 10 ng/ml PMA; for EC50: read-out: AP-1 (EC50, nM) (measured in cellular transrepression assay); for Emax: read-out: AP-1 Max % inhibition (measured in cellular transrepression assay)
Protocol: Cellular Transrepressional Assay
To measure the ability of test molecules to inhibit AP-1 induced transcriptional activity we utilized an A549 cell which was stably transfected with a plasmid containing 7×AP-1 DNA binding sites (pAP-1-Luc plasmid, Stratagene Co. La Jolla, Calif.) followed by the gene for luciferase. Cells were activated with 10 ng/ml of phorbol myristic acid (PMA) plus or minus test molecules for 7 hours. After 7 hours a luciferase reagent was added to measure luciferase enzymatic activity in the cell. After a 10 minute incubation of luciferase reagent with cells, luminescence was measured in a TopCount luminescence counter. Repression of AP-1 activity was calculated as the percentage decrease in the signal induced by PMA alone. Test molecules were analyzed in the concentration range from 0.1 nM to 40 μM. EC50s were determined by using standard curve fitting methods such as Excel fit (Microsoft Co.). An EC50 is the test molecule concentration at which there is a 50% repression of the maximal inhibition of transcription, i.e. a 50% reduction of AP-1 activity.

Row | Compound | Ki [1] | EC50 (AP-1) | Emax (AP-1)
1 | CSc1ccc(-c2ccc3c(n2)Oc2nc(C)ccc2[C@@H]3C(C)(C)C(=O)Nc2nncs2)cc1 [Example 29] | 18.9 nM | – | –
2 | Cc1ccc2c(n1)Oc1nc(-c3ccc(C(=O)N(C)C)cc3)ccc1[C@H]2C(C)(C)C(=O)Nc1ncc(C(=O)NC2CC2)s1 [Example 53] | 106 nM | – | –
3 | CC(=O)c1ccc(-c2ccc3c(n2)Oc2nc(C)ccc2C3C(C)(C)C(=O)Nc2nncs2)cc1 (centres unmarked) [Example 17] | – | 72.8 nM | 42.4%
4 | CC(C)(C(=O)Nc1nncs1)C1c2cccnc2Oc2nc(-c3ccc(C(=O)N4CCOCC4)cc3)ccc21 (centres unmarked) [Example 5] | – | 142 nM | 33.9%
5 | Cc1ccc2c(n1)Oc1nc(N(C)C)ccc1C2C(C)(C)C(=O)Nc1nncs1 (centres unmarked) [Example 20, 2-(2-(dimethylamino)-8-methyl-5H-pyrido[3′,2′:5,6]pyrano[2,3-b]pyridin-5-yl)-2-methyl-N-1,3,4-thiadiazol-2-ylpropanamide] | – | 198 nM | 27.9%
6 | CCNC(=O)c1nnc(NC(=O)C(C)(C)[C@H]2c3ccc(C)nc3Oc3nc(-c4ccc(C(=O)N(C)CC)cc4)ccc32)s1 [Example 48] | – | 341 nM | 59.4%
7 | Cc1ccc2c(n1)Oc1nc(-c3ccc(C(=O)N4CCOCC4)c(F)c3)ccc1[C@H]2C(C)(C)C(=O)Nc1nncs1 [Example 42] | – | 228 nM | 43.6%
8 | Cc1ccc2c(n1)Oc1nc(-c3ccc(C(=O)N4CCOCC4)cc3)ccc1[C@H]2C(C)(C)C(=O)Nc1nnc(C(=O)NC2CCOCC2)s1 [Example 88, 5-((2-methyl-2-((5S)-2-methyl-8-(4-(4-morpholinylcarbonyl)phenyl)-5H-pyrano[2,3-b:6,5-b′]dipyridin-5-yl)propanoyl)amino)-N-(tetrahydro-2H-pyran-4-yl)-1,3,4-thiadiazole-2-carboxamide] | – | 56.9 nM | 32.9%
9 | CC[S+]([O-])c1ccc(-c2ccc3c(n2)Oc2nc(C)ccc2C3C(C)(C)C(=O)Nc2nncs2)cc1 (stereo in doubt) [Example 81, 2-((5S)-2-(4-(ethylsulfinyl)phenyl)-8-methyl-5H-pyrido[3′,2′:5,6]pyrano[2,3-b]pyridin-5-yl)-2-methyl-N-1,3,4-thiadiazol-2-ylpropanamide] | – | 368 nM | 28.7%
10 | CC(C)(C(=O)Nc1nncs1)C1c2ccc(Cl)nc2Oc2nc(-c3ccc(C(=O)N4CCOCC4)cc3)ccc21 (centres unmarked) [Example 60] | – | 10.7 nM | 57.5%
11 | CCN(C)C(=O)c1ccc(-c2ccc3c(n2)Oc2nc(C)ccc2[C@@H]3C(C)(C)C(=O)Nc2nnc(C(=O)NCC(F)(F)F)s2)cc1 [Example 87] | – | 574 nM | 51.7%
12 | CCN(C)C(=O)c1ccc(-c2ccc3c(n2)Oc2nc(C)ccc2[C@@H]3C(C)(C)C(=O)Nc2nnc(C(=O)NC3CC3)s2)cc1 [Example 44] | – | 589 nM | 60.8%
13 | CN(C)c1ccc2c(n1)Oc1nc(-c3ccc(C(=O)N4CCOCC4)cc3)ccc1C2C(C)(C)C(=O)Nc1nncs1 (centres unmarked) [Example 72] | – | 18 nM | 48.7%
14 | Cc1ccc2c(n1)Oc1nc(-c3ccc([S+](C)[O-])cc3)ccc1C2C(C)(C)C(=O)Nc1nncs1 [Example 36, (4-((5S)-5-(1,1-dimethyl-2-oxo-2-(1,3,4-thiadiazol-2-ylamino)ethyl)-8-methyl-5H-pyrido[3′,2′:5,6]pyrano[2,3-b]pyridin-2-yl)phenyl)(methyl)sulfoniumolate] | – | 526 nM | 26.9%
15 | Cc1ccc2c(n1)Oc1nc(-c3ccc(C(=O)N4CCC(F)(F)C4)cc3)ccc1[C@H]2C(C)(C)C(=O)Nc1nncs1 [Example 40] | – | 539 nM | 43.3%
16 | CCC(=O)c1ccc(-c2ccc3c(n2)Oc2nc(C)ccc2[C@@H]3C(C)(C)C(=O)Nc2nncs2)cc1 [Example 76] | – | 119 nM | 48.5%
17 | Cc1ccc2c(n1)Oc1nc(-c3ccc(C(=O)N4CCOCC4)cc3)ccc1C2C(C)(C)C(=O)Nc1nncs1 (centres unmarked) [Example 15] | – | 460 nM | 47.4%
18 | CCOC(=O)c1nnc(NC(=O)C(C)(C)[C@H]2c3ccc(C)nc3Oc3nc(-c4ccc(C(=O)N(C)CC)cc4)ccc32)s1 [Example 32] | – | 176 nM | 74.3%
19 | Cc1ccc2c(n1)Oc1nc(-c3ccc([S+]([O-])C(C)C)cc3)ccc1C2C(C)(C)C(=O)Nc1nncs1 (stereo in doubt) [Example 82, 2-((5S)-2-(4-(isopropylsulfinyl)phenyl)-8-methyl-5H-pyrido[3′,2′:5,6]pyrano[2,3-b]pyridin-5-yl)-2-methyl-N-1,3,4-thiadiazol-2-ylpropanamide] | – | 181 nM | 34.4%
20 | Cc1ccc2c(n1)Oc1nc(-c3ccc(OC(C)C)cc3)ccc1[C@H]2C(C)(C)C(=O)Nc1nncs1 [Example 30] | – | 41.6 nM | 34.6%

Second part, led by results:

Row | Ki [1] | EC50 (AP-1) | Compound | Emax (AP-1)
21 | – | 175 nM | CCN(C)C(=O)c1ccc(-c2ccc3c(n2)Oc2nc(C)ccc2[C@@H]3C(C)(C)C(=O)Nc2nnc(C)s2)cc1 [Example 35] | 45%
22 | – | 68.5 nM | Cc1nsc(NC(=O)C(C)(C)C2c3ccc(Cl)nc3Oc3nc(-c4ccc(C(=O)N(C)C)cc4)ccc32)n1 (centres unmarked) [Example 57] | 31.4%
23 | – | 14.6 nM | CCN(C)C(=O)c1ccc(-c2ccc3c(n2)Oc2nc(C)ccc2[C@@H]3C(C)(C)C(=O)Nc2nccs2)cc1 [Example 34] | 64.9%
24 | – | 15.8 nM | CCN(C)C(=O)c1ccc(-c2ccc3c(n2)Oc2nc(Cl)ccc2C3C(C)(C)C(=O)Nc2nncs2)cc1 (centres unmarked) [Example 59] | 62.3%
25 | – | 449 nM | CCN(C)C(=O)c1ccc(-c2ccc3c(n2)Oc2nc(C)ccc2[C@@H]3C(C)(C)C(=O)Nc2ncc(C)s2)cc1 [Example 33] | 50.8%
26 | – | 335 nM | CN(C)C(=O)c1ccc(-c2ccc3c(n2)Oc2nc(C#N)ccc2C3C(C)(C)C(=O)Nc2nncs2)cc1 (centres unmarked) [Example 66, 4-(8-cyano-5-(1,1-dimethyl-2-oxo-2-(1,3,4-thiadiazol-2-ylamino)ethyl)-5H-pyrido[3′,2′:5,6]pyrano[2,3-b]pyridin-2-yl)-N,N-dimethylbenzamide] | 38.9%
27 | – | 790 nM | Cc1ccc2c(n1)Oc1nc(-c3ccc(C(=O)N(C)C)cc3)ccc1[C@H]2C(C)(C)C(=O)Nc1nnn(C)n1 [Example 94] | 35.9%
28 | – | 70.6 nM | Cc1nnc(NC(=O)C(C)(C)C2c3ccc(Cl)nc3Oc3nc(-c4ccc(C(=O)N(C)C)cc4)ccc32)s1 (centres unmarked) [Example 56] | 45.9%
29 | – | 354 nM | CC(C)Sc1ccc2c(n1)Oc1nc(-c3ccc(C(=O)N(C)C)cc3)ccc1C2C(C)(C)C(=O)Nc1nncs1 (centres unmarked) [Example 55] | 30.5%
30 | – | 90.1 nM | Cc1ccc2c(n1)Oc1nc(-c3ccc(C(=O)N(C)C)cc3)ccc1[C@H]2C(C)(C)C(=O)Nc1nncs1 [Example 11] | 45.2%
31 | – | 233 nM | Cc1ccc2c(n1)Oc1nc(-c3ccc(C(=O)N(C)C)cc3)ccc1[C@H]2C(C)(C)C(=O)Nc1ncns1 [Example 13] | 38.1%
32 | – | 33.8 nM | CN(C)C(=O)c1ccc(-c2ccc3c(n2)Oc2nc(Cl)ccc2C3C(C)(C)C(=O)Nc2nncs2)cc1 (centres unmarked) [Example 54, 4-(8-chloro-5-(1,1-dimethyl-2-oxo-2-(1,3,4-thiadiazol-2-ylamino)ethyl)-5H-pyrido[3′,2′:5,6]pyrano[2,3-b]pyridin-2-yl)-N,N-dimethylbenzamide] | 59.2%
